Assay results from the supplement of paper PMC11451515.

Key:
Conditions in all cases: 48 h
[1] = tested on: SEM cells; assay: cell viability relative to DMSO control; higher = less cytotoxic
Summary of the method: (§1)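 Viability was expressed as a per-plate percentage of DMSO wells, with cell-free wells as background. Leukemia cells (NOMO1 or SEM at 500 cells/well, P12-Ichikawa at 1000 cells/well) were adapted for at least four passages in each medium and seeded in 1536-well plates (5 μl). Library compounds in DMSO were pin-dosed over an 11-point threefold series from 47 μM to 0.79 nM, and CellTiter-Glo One luminescence was read after 48 h at 37°C.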

[2] = tested on: NOMO1; assay: as above
Summary of the method: as §1

[3] = tested on: P12-Ichikawa; assay: as above
Summary of the method: as §1

[4] = tested on: SEM cells; assay: AUC of viability dose-response curve (% viability x log10 dose units); higher = less sensitive
Summary of the method: (§2)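 Leukemia cells adapted to each medium were seeded in 1536-well plates (500 or 1000 cells/well). They were dosed with library compounds in DMSO at 11 threefold doses, 47 μM to 0.79 nM, for 48 h at 37°C. CellTiter-Glo One luminescence was normalised per plate to DMSO and cell-free wells. Area under the curve was integrated by trapezoidal rule over log10 doses on a four-parameter log-logistic fit; curves exceeding full viability were scaled and curves failing quality control removed.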

[5] = tested on: NOMO1; assay: as above
Summary of the method: as §2

[6] = tested on: P12-Ichikawa; assay: as above
Summary of the method: as §2

CC1(C)C(=O)N(CCN2CCC(C(=O)c3ccc(F)cc3)CC2)c2ccccc21
cell viability [%]
Conditions	[1]	[2]	[3]
HPLM + 10% dialyzed FBS, 0.000781 µM	92.5	117	112
HPLM + 10% dialyzed FBS, 0.00234 µM	111	115	116
HPLM + 10% dialyzed FBS, 0.00702 µM	113	120	117
HPLM + 10% dialyzed FBS, 0.0211 µM	111	141	120
HPLM + 10% dialyzed FBS, 0.0632 µM	119	151	118
HPLM + 10% dialyzed FBS, 0.19 µM	119	138	123
HPLM + 10% dialyzed FBS, 0.569 µM	119	162	126
HPLM + 10% dialyzed FBS, 1.71 µM	113	128	122
HPLM + 10% dialyzed FBS, 5.12 µM	103	119	120
HPLM + 10% dialyzed FBS, 15.4 µM	98.7	129	120
HPLM + 10% dialyzed FBS, 46.1 µM	101	88.7	113
RPMI 5 mM glucose + 10% FBS, 0.000781 µM	102	120	–
RPMI 5 mM glucose + 10% FBS, 0.00234 µM	121	124	–
RPMI 5 mM glucose + 10% FBS, 0.00702 µM	115	120	–
RPMI 5 mM glucose + 10% FBS, 0.0211 µM	115	131	–
RPMI 5 mM glucose + 10% FBS, 0.0632 µM	105	141	–
RPMI 5 mM glucose + 10% FBS, 0.19 µM	117	142	–
RPMI 5 mM glucose + 10% FBS, 0.569 µM	115	128	–
RPMI 5 mM glucose + 10% FBS, 1.71 µM	100	133	–
RPMI 5 mM glucose + 10% FBS, 5.12 µM	89.7	117	–
RPMI 5 mM glucose + 10% FBS, 15.4 µM	107	122	–
RPMI 5 mM glucose + 10% FBS, 46.1 µM	94.2	82.1	–
RPMI 5 mM glucose + 10% dialyzed FBS, 0.000781 µM	111	116	109
RPMI 5 mM glucose + 10% dialyzed FBS, 0.00234 µM	109	120	110
RPMI 5 mM glucose + 10% dialyzed FBS, 0.00702 µM	105	134	118
RPMI 5 mM glucose + 10% dialyzed FBS, 0.0211 µM	134	136	123
RPMI 5 mM glucose + 10% dialyzed FBS, 0.0632 µM	116	134	126
RPMI 5 mM glucose + 10% dialyzed FBS, 0.19 µM	115	134	125
RPMI 5 mM glucose + 10% dialyzed FBS, 0.569 µM	117	148	121
RPMI 5 mM glucose + 10% dialyzed FBS, 1.71 µM	124	132	123
RPMI 5 mM glucose + 10% dialyzed FBS, 5.12 µM	111	120	115
RPMI 5 mM glucose + 10% dialyzed FBS, 15.4 µM	114	113	97.9
RPMI 5 mM glucose + 10% dialyzed FBS, 46.1 µM	101	84.1	93.5

AUC of viability dose-response curve
Conditions	[4]	[5]	[6]
HPLM + 10% dialyzed FBS	471	468	469
RPMI 5 mM glucose + 10% FBS	455	465	472
RPMI 5 mM glucose + 10% dialyzed FBS	471	459	462

CC(C)(C)C(=O)Oc1ccc([S+](=O)([O-])Nc2ccccc2C(=O)NCC(=O)O)cc1
cell viability [%]
Conditions	[1]	[2]	[3]
HPLM + 10% dialyzed FBS, 0.000781 µM	107	115	113
HPLM + 10% dialyzed FBS, 0.00234 µM	106	106	114
HPLM + 10% dialyzed FBS, 0.00702 µM	111	139	113
HPLM + 10% dialyzed FBS, 0.0211 µM	109	122	111
HPLM + 10% dialyzed FBS, 0.0632 µM	116	117	117
HPLM + 10% dialyzed FBS, 0.19 µM	122	110	122
HPLM + 10% dialyzed FBS, 0.569 µM	74.3	109	116
HPLM + 10% dialyzed FBS, 1.71 µM	58.9	113	115
HPLM + 10% dialyzed FBS, 5.12 µM	123	129	111
HPLM + 10% dialyzed FBS, 15.4 µM	128	122	123
HPLM + 10% dialyzed FBS, 46.1 µM	124	134	133
RPMI 5 mM glucose + 10% FBS, 0.000781 µM	95.5	107	107
RPMI 5 mM glucose + 10% FBS, 0.00234 µM	93.9	102	106
RPMI 5 mM glucose + 10% FBS, 0.00702 µM	88.9	99.7	111
RPMI 5 mM glucose + 10% FBS, 0.0211 µM	92.8	98.4	106
RPMI 5 mM glucose + 10% FBS, 0.0632 µM	104	112	115
RPMI 5 mM glucose + 10% FBS, 0.19 µM	107	108	123
RPMI 5 mM glucose + 10% FBS, 0.569 µM	95.1	114	113
RPMI 5 mM glucose + 10% FBS, 1.71 µM	48.8	117	119
RPMI 5 mM glucose + 10% FBS, 5.12 µM	91.6	104	126
RPMI 5 mM glucose + 10% FBS, 15.4 µM	96.7	109	131
RPMI 5 mM glucose + 10% FBS, 46.1 µM	90.4	129	134
RPMI 5 mM glucose + 10% dialyzed FBS, 0.000781 µM	106	110	112
RPMI 5 mM glucose + 10% dialyzed FBS, 0.00234 µM	99.3	117	115
RPMI 5 mM glucose + 10% dialyzed FBS, 0.00702 µM	104	113	106
RPMI 5 mM glucose + 10% dialyzed FBS, 0.0211 µM	123	122	118
RPMI 5 mM glucose + 10% dialyzed FBS, 0.0632 µM	94.6	109	113
RPMI 5 mM glucose + 10% dialyzed FBS, 0.19 µM	116	122	117
RPMI 5 mM glucose + 10% dialyzed FBS, 0.569 µM	93.7	119	120
RPMI 5 mM glucose + 10% dialyzed FBS, 1.71 µM	50.6	116	121
RPMI 5 mM glucose + 10% dialyzed FBS, 5.12 µM	98.8	129	122
RPMI 5 mM glucose + 10% dialyzed FBS, 15.4 µM	109	131	132
RPMI 5 mM glucose + 10% dialyzed FBS, 46.1 µM	124	124	138

AUC of viability dose-response curve
Conditions	[4]	[5]	[6]
HPLM + 10% dialyzed FBS	465	428	416
RPMI 5 mM glucose + 10% FBS	436	437	423
RPMI 5 mM glucose + 10% dialyzed FBS	471	443	420

C[C@@]12O[C@@H](C[C@]1(O)CO)n1c3ccccc3c3c4c(c5c6ccccc6n2c5c31)CNC4=O
cell viability [%]
Conditions	[1]	[2]	[3]
HPLM + 10% dialyzed FBS, 0.000781 µM	117	–	115
HPLM + 10% dialyzed FBS, 0.00234 µM	125	–	112
HPLM + 10% dialyzed FBS, 0.00702 µM	127	–	109
HPLM + 10% dialyzed FBS, 0.0211 µM	109	–	112
HPLM + 10% dialyzed FBS, 0.0632 µM	89.7	–	110
HPLM + 10% dialyzed FBS, 0.19 µM	65.5	–	101
HPLM + 10% dialyzed FBS, 0.569 µM	27.3	–	81.3
HPLM + 10% dialyzed FBS, 1.71 µM	18.4	–	29.9
HPLM + 10% dialyzed FBS, 5.12 µM	14.8	–	23.2
HPLM + 10% dialyzed FBS, 15.4 µM	11.8	–	15.2
HPLM + 10% dialyzed FBS, 46.1 µM	7.23	–	12.9
RPMI 5 mM glucose + 10% FBS, 0.000781 µM	–	106	116
RPMI 5 mM glucose + 10% FBS, 0.00234 µM	–	128	117
RPMI 5 mM glucose + 10% FBS, 0.00702 µM	–	102	121
RPMI 5 mM glucose + 10% FBS, 0.0211 µM	–	121	110
RPMI 5 mM glucose + 10% FBS, 0.0632 µM	–	119	111
RPMI 5 mM glucose + 10% FBS, 0.19 µM	–	96.3	98.2
RPMI 5 mM glucose + 10% FBS, 0.569 µM	–	77.3	70.5
RPMI 5 mM glucose + 10% FBS, 1.71 µM	–	42.3	26.1
RPMI 5 mM glucose + 10% FBS, 5.12 µM	–	39.9	26.6
RPMI 5 mM glucose + 10% FBS, 15.4 µM	–	24.3	15.6
RPMI 5 mM glucose + 10% FBS, 46.1 µM	–	5.7	8.24
RPMI 5 mM glucose + 10% dialyzed FBS, 0.000781 µM	118	103	115
RPMI 5 mM glucose + 10% dialyzed FBS, 0.00234 µM	111	118	109
RPMI 5 mM glucose + 10% dialyzed FBS, 0.00702 µM	96.4	122	115
RPMI 5 mM glucose + 10% dialyzed FBS, 0.0211 µM	106	138	103
RPMI 5 mM glucose + 10% dialyzed FBS, 0.0632 µM	65	110	97.6
RPMI 5 mM glucose + 10% dialyzed FBS, 0.19 µM	52.1	99.6	104
RPMI 5 mM glucose + 10% dialyzed FBS, 0.569 µM	20.2	76.4	62.3
RPMI 5 mM glucose + 10% dialyzed FBS, 1.71 µM	13	50	33.8
RPMI 5 mM glucose + 10% dialyzed FBS, 5.12 µM	8.04	31.8	24.3
RPMI 5 mM glucose + 10% dialyzed FBS, 15.4 µM	6.86	27.4	9.03
RPMI 5 mM glucose + 10% dialyzed FBS, 46.1 µM	5.81	4.47	8.99

AUC of viability dose-response curve
Conditions	[4]	[5]	[6]
HPLM + 10% dialyzed FBS	251	313	326
RPMI 5 mM glucose + 10% FBS	217	326	311
RPMI 5 mM glucose + 10% dialyzed FBS	228	324	311
